Measured values as given in US11667621B2, “Antiestrogen compounds” (STEVENS INSTITUTE OF TECHNOLOGY, priority 2018, dated 2023).
Substitutions are numbered along the chain they refer to.

Experiments:
Assay in all cases: Luciferase assay, overexpressed ER (3×-ERE-TATA-Luciferase reporter)
Assay type in all cases: cell-based
HA-ERα D538G = target: T1, HA-ERα D538G (Homo sapiens, UniProt P03372, D538G); conditions: compound concentration 1 μM, 24 hours
T1 construct: HA; expressed in transfected cells
T1 sequence (P03372 1-595 D538G): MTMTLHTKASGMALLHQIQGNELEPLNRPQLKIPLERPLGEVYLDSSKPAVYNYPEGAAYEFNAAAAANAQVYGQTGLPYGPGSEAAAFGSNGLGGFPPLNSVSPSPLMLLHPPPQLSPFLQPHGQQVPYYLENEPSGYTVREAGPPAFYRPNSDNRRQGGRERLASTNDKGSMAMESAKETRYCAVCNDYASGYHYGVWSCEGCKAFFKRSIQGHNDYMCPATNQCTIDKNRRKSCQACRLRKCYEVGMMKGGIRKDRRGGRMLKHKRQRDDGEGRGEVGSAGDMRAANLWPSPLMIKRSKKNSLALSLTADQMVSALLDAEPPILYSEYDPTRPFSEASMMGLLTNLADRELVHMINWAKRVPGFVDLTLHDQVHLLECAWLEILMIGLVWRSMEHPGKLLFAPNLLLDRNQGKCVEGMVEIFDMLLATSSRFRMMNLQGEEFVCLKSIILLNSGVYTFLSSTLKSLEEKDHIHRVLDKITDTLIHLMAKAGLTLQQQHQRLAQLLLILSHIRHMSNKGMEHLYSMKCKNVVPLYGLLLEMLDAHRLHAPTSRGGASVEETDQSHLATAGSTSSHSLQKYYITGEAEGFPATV
Description: (§1) Luciferase assays were performed to determine the efficacy of the example compounds at inhibiting ER or its mutants' ability to activate transcription of genes.
(§2) Cells were plated at a density of 0.15×10^6 per well of 24 well plates one day prior to transfection. Cells were transfected with 125 ng (per well) of HA-ERα wild type or mutants, 315 ng (per well) of 3×-ERE-TATA-Luciferase reporter and 50 ng (per well) of pRL-TK Renilla Luciferase plasmid, using Xtremegene (Roche). The cells were treated with the various compounds or Fulvestrant at the indicated doses a day after transfection for 24 hours and luciferase activities were determined using the Dual-Luciferase® Reporter Assay System (Promega) according to manufacturer's instructions. Luciferase bioluminescence measurements were performed with the Veritas™ Microplate Luminometer (Promega). All experiments were conducted in triplicate and the Firefly luciferase activity was normalized with the Renilla luciferase activity of each sample.

HA-ERα L536R = target: T2, HA-ERα L536R (Homo sapiens, UniProt P03372, L536R); conditions: compound concentration 1 μM, 24 hours
T2 construct: HA; expressed in transfected cells
T2 sequence (P03372 1-595 L536R): T1 sequence (P03372 1-595 D538G) with L536R, G538D
Description: as §1, §2

HA-ERα Y537S = target: T3, HA-ERα Y537S (Homo sapiens, UniProt P03372, Y537S); conditions: compound concentration 1 μM, 24 hours
T3 construct: HA; expressed in transfected cells
T3 sequence (P03372 1-595 Y537S): T1 sequence (P03372 1-595 D538G) with Y537S, G538D
Description: as §1, §2

HA-ERα wild type = target: T4, HA-ERα wild type (Homo sapiens, UniProt P03372); conditions: compound concentration 1 μM, 24 hours; read-out: Overexpressed ER (% Inhibition) WT
T4 construct: HA; expressed in transfected cells
T4 sequence (P03372 1-595): T1 sequence (P03372 1-595 D538G) with G538D
Description: as §1, §2

inhibition at 1 µM (HA-ERα D538G)	inhibition at 1 µM (HA-ERα L536R)	inhibition at 1 µM (HA-ERα Y537S)	inhibition at 1 µM (HA-ERα wild type)	SMILES
93%	82%	-51%	85%	O=C(COc1cccc2c1C(=O)N(C1CCC(=O)NC1=O)C2=O)NCCCCOc1ccc(C(=C2C3CC4CC(C3)CC2C4)c2ccc(O)cc2)cc1 (stereo not drawn) [Example 15, N-(4-(4-(Adamantan-2-ylidene(4-hydroxyphenyl)methyl)phenoxy)butyl)-2-((2-(2,6-dioxopiperidin-3-yl)-1,3-dioxoisoindolin-4-yl)oxy)acetamide]
61%	64%	-65%	81%	O=C(COc1cccc2c1C(=O)N(C1CCC(=O)NC1=O)C2=O)NCCCCCCOc1ccc(C(=C2C3CC4CC(C3)CC2C4)c2ccc(O)cc2)cc1 (stereo not drawn) [Example 16, N-(6-(4-(Adamantan-2-ylidene(4-hydroxyphenyl)methyl)phenoxy)hexyl)-2-((2-(2,6-dioxopiperidin-3-yl)-1,3-dioxoisoindolin-4-yl)oxy)acetamide]
86%	84%	-75%	80%	O=C1CCC(N2C(=O)c3cccc(OCCOCCOCCOc4ccc(C(=C5C6CC7CC(C6)CC5C7)c5ccc(O)cc5)cc4)c3C2=O)C(=O)N1 (stereo not drawn) [Example 18, 4-(2-(2-(2-(4-(Adamantan-2-ylidene(4-hydroxyphenyl)methyl)phenoxy)-ethoxy)ethoxy)ethoxy)-2-(2,6-dioxopiperidin-3-yl)isoindoline-1,3-dione]
90%	83%	-136%	82%	O=C1CCC(N2C(=O)c3cccc(OCCOCCOc4ccc(C(=C5C6CC7CC(C6)CC5C7)c5ccc(O)cc5)cc4)c3C2=O)C(=O)N1 (stereo not drawn) [Example 19, 4-(2-(2-(4-(Adamantan-2-ylidene(4-hydroxyphenyl)methyl)phenoxy)-ethoxy)ethoxy)-2-(2,6-dioxopiperidin-3-yl)isoindoline-1,3-dione]
-7%	-75%	-160%	-83%	O=C(NCCCCOc1ccc(C(=C2CCCCC2)c2ccc(O)cc2)cc1)C1CCC1 [Example 24, N-(4-(4-(Cyclohexylidene(4-hydroxyphenyl)methyl)phenoxy)-butyl)cyclobutanecarboxamide]
–	–	–	36%	O=C(NCCCCOc1ccc(C(=C2C3CC4CC(C3)CC2C4)c2ccc(O)cc2)cc1)C1CC1 [Example 31, N-(4-(4-(Adamantan-2-ylidene(4-hydroxyphenyl)methyl)phenoxy)butyl)cyclopropanecarboxamide]
–	–	–	48%	O=C(NCCCCOc1ccc(C(=C2C3CC4CC(C3)CC2C4)c2ccc(O)cc2)cc1)C1CC1(F)F (stereo not drawn) [Example 32, N-(4-(4-(Adamantan-2-ylidene(4-hydroxyphenyl)methyl)phenoxy)butyl)-2,2-difluorocyclopropanecarboxamide]
–	–	–	79%	O=C(NCCCCOc1ccc(C(=C2C3CC4CC(C3)CC2C4)c2ccc(O)cc2)cc1)c1ccc(C(F)(F)F)cc1 [Example 33, N-(4-(4-(Adamantan-2-ylidene(4-hydroxyphenyl)methyl)phenoxy)butyl)-4-(trifluoromethyl)benzamide]
–	–	–	65%	O=C(CCC1CCCCC1)NCCCCOc1ccc(C(=C2C3CC4CC(C3)CC2C4)c2ccc(O)cc2)cc1 [Example 34, N-(4-(4-(Adamantan-2-ylidene(4-hydroxyphenyl)methyl)phenoxy)butyl)-3-cyclohexylpropanamide]

The next lines start with the compound.

SMILES	inhibition at 1 µM (HA-ERα D538G)	inhibition at 1 µM (HA-ERα L536R)	inhibition at 1 µM (HA-ERα Y537S)	inhibition at 1 µM (HA-ERα wild type)
Cc1c(-c2ccc(O)cc2)n(Cc2ccc(OCCCCNC(=O)[C@H]3CC[C@H](C(F)(F)F)CC3)cc2)c2ccc(O)cc12 [Example 20, (trans)-N-(4-(4-((5-Hydroxy-2-(4-hydroxyphenyl)-3-methyl-1H-indol-1-yl)methyl)phenoxy)butyl)-4-(trifluoromethyl)cyclohexanecarboxamide]	–	–	–	83%
Cc1c(-c2ccc(O)cc2)n(Cc2ccc(OCCCCNC(=O)C34CC5CC(CC(C5)C3)C4)cc2)c2ccc(O)cc12 [Example 21, N-(4-(4-((5-Hydroxy-2-(4-hydroxyphenyl)-3-methyl-1H-indol-1-yl)methyl)phenoxy)butyl)adamantane-1-carboxamide]	–	–	–	82%
O=C(NCCCCOc1ccc(C2c3ccc(O)cc3CCC2c2ccccc2)cc1)[C@H]1CC[C@H](C(F)(F)F)CC1 (stereo partly drawn) [Example 22, (trans)-N-(4-(4-(6-Hydroxy-2-phenyl-1,2,3,4-tetrahydronaphthalen-1-yl)phenoxy)butyl)-4-(trifluoromethyl)cyclohexanecarboxamide]	–	–	–	-130%
O=C(NCCCCOc1ccc(C(=C2CCCCC2)c2ccc(O)cc2)cc1)C1CCCCC1 [Example 23, N-(4-(4-(Cyclohexylidene(4-hydroxyphenyl)methyl)phenoxy)butyl)-cyclohexanecarboxamide]	0%	43%	-169%	-25%
O=C(NCCCCOc1ccc(C(=C2CCCCC2)c2ccc(O)cc2)cc1)[C@H]1CC[C@H](C(F)(F)F)CC1 [Example 25, (trans)-N-(4-(4-(Cyclohexylidene(4-hydroxyphenyl)methyl)phenoxy)butyl)-4-(trifluoromethyl)cyclohexanecarboxamide]	42%	36%	-39%	77%
O=C(CCC1CCCCC1)NCCCCOc1ccc(Oc2c(-c3ccc(O)cc3)sc3cc(O)ccc23)cc1 [Example 30, 3-Cyclohexyl-N-(4-(4-((6-hydroxy-2-(4-hydroxyphenyl)benzo[b]thiophen-3-yl)oxy)phenoxy)butyl)propanamide]	–	–	–	61%
